Assay results: US7645776B2, “Heteroaryl substituted piperidine derivatives which are L-CPT1 inhibitors” (Hoffmann-La Roche Inc., priority 2005, dated 2010)

What follows are molecules tested against T1, liver carnitine palmitoyl transferase 1 (L-CPT1) (Homo sapiens, UniProt P50416) (assay: L-CPT1 inhibition, spectrophotometric DTNB (Ellman's reagent) CPT activity assay).
T1 construct: made in house; host or cells: Pichia pastoris strain X-33 (crude cell-free extract)
T1 sequence (P50416 1-773): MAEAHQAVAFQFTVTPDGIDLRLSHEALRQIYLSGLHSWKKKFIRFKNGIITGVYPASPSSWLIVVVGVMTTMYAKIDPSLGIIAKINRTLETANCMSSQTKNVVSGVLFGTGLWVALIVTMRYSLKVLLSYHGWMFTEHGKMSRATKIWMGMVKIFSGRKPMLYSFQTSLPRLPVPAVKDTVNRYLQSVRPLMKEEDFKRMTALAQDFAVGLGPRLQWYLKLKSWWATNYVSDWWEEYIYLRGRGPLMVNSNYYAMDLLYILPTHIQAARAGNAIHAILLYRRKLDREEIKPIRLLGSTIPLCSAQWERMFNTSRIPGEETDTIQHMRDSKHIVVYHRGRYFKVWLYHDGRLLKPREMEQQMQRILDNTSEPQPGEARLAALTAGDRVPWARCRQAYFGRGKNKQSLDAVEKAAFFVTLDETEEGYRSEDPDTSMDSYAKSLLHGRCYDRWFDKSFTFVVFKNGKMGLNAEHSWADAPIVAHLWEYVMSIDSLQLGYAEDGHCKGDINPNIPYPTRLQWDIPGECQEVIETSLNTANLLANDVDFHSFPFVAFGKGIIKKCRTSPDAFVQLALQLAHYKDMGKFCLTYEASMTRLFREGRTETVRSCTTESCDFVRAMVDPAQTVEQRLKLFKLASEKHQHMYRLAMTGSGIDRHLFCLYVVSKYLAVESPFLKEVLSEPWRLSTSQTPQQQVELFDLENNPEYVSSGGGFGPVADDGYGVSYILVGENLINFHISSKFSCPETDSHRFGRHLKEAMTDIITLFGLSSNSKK
Type: biochemical
Experimental: The following tests were carried out in order to determine the activity of the compounds of the present invention. Background information on the performed assays can be found in: Jackson et al., 1999, Biochem. J. 341, 483-489 and Jackson et al., 2000, J. Biol. Chem. 275, 19560-19566.
Human liver and muscle CPT1 cDNAs and rat CPT2 cDNA were subcloned in pGAPZB or pGAPZA, respectively. These plasmids were used to transform P. pastoris strain X-33 via electroporation after the preparation of electrocompetent cells. High copy number clones were selected where necessary using 0.5 or 1 mg/ml Zeocin. Cultures for activity measurements were induced for 16 h in YPD medium (1% yeast extract, 2% peptone, 2% glucose). Crude cell extracts were prepared by disrupting the cells with glass beads or French Press, depending on fermenter sizes. After centrifugation, the cell-free extracts were resuspended in cell breaking buffer (50 mM Tris, pH7.4, 100 mM KCl, 1 mM EDTA) in the presence of a protease inhibitor cocktail, before aliquoting and freezing at −20° C.
CPT activity was measured using a spectrophotometric assay using 5,5′-dithio-bis-(2-nitrobenzoic acid) (DTNB) also called Ellman's reagent. The HS-CoA released on the formation of acylcarnitine from carnitine (500 μM) and palmitoyl-CoA (80 μM) reduced DTNB (300 μM) forming 5-mercapto-(2-nitrobenzoic acid) which absorbed at 410 nm with a molar coefficient extinction of 13600 M^−1.cm^−1. The assay buffer contained 120 mM KCl, 25 mM Tris, pH 7.4, 1 mM EDTA. This assay was used for the identification of selective inhibitors of the liver CPT1 isoform versus the muscle CPT1 and CPT2 isoforms.

IC50 [nM]	SMILES
66	COc1ccc(-c2noc([C@H]3CCCCN3C(=O)COc3ccccc3)n2)cc1 [Example 1, (R)-1-{2-[3-(4-Methoxy-phenyl)-[1,2,4]oxadiazol-5-yl]-piperidin-1-yl}-2-phenoxy-ethanone]
260	O=C(COc1ccccc1)N1CCCC[C@@H]1c1nc(-c2ccc(F)cc2)no1 [Example 10, (R)-1-{2-[3-(4-Fluoro-phenyl)-[1,2,4]oxadiazol-5-yl]-piperidin-1-yl}-2-phenoxy-ethanone]

SMILES	IC50 [nM]
COc1ccc(-c2n[nH]c([C@H]3CN(C)CCN3C(=O)COc3ccccc3)n2)cc1 [Example 172, (R)-1-{2-[5-(4-Methoxy-phenyl)-2H-[1,2,4]triazol-3-yl]-4-methyl-piperazin-1-yl}-2-phenoxy-ethanone]	242
